The target of one assay is T1, Aβ plaques (Homo sapiens, UniProt P05067).
T1 construct: Native forms of tau (various isoforms, hyperphosphorylated) and amyloid aggregates are present in brain sections; from tissue; host or cells: human AD brain, frozen frontal lobe sections
Description: Fluorescent compound staining on human AD brain sections (β-amyloid IHC double labeling). The conditions noted are these: 100 uM compound, qualitative rating + to ++++ or words. It counts as binding. The text has this:
(§1) Native forms of tau (various isoforms, hyperphosphorylated) and amyloid aggregates are present in brain sections and therefore preferred for compound testing. Using the self-fluorescence of a test compound can give an indication of whether the compound binds to tau tangles/PHFs and/or amyloid plaques. This is further confirmed by immunostaining with Aβ and tau antibodies and overlaying the images. […] However, it is possible to “rate” the signal strength qualitatively and distinguish compounds that show binding to these aggregates.
(§2) In one of the embodiments of the present invention, the self-fluorescence of the compound of formula (I) is used to determine whether the compound binds to tau/amyloid in the brain sections and to give it a qualitative rating. The next step is to proceed to the autoradiography using different brain types for further evaluation and quantitation.
(§3) Tau fluorescent compounds staining on human brain sections (Double or triple labeled with tau and β-amyloid Immunohistochemistry (IHC))
(§4) Serial sections (6 μm thick) from OCT-embedded frozen blocks of front lobe were used for staining (OCT—optimal cutting temperature). After fixation and quenching of autofluorescence, tissue sections were incubated with in 100 μM of tau compound in 50% ethanol PBS for 60 min. Then sections were dipped briefly into water, rinsed in PBS, blocked with 5% normal horse serum in PBS for 1 hour at room temperature. After blocking, the tissue was incubated with tau or β-amyloid primary antibody at 4° C. overnight in a humid chamber. Next day, the sections were washed with PBS and then incubated with secondary antibody for 1 hour.

For a further assay, the system named is AD brain sections. Description: Fluorescent compound staining on human AD brain sections (self-fluorescence, overall binding). To be noted: for Brain Section Staining: fluorescence: Table 1 quinolines, 100 uM compound; for binding of fluorescent compound to AD brain sections confirmed by immunostaining with tau or Aβ antibodies: figure legends, double labeling at 100 uM.
Excerpt: as §1, §2, §3, §4

A further assay deals with tau aggregates. Description: Fluorescent compound staining on human AD brain sections (tau IHC double labeling). The assay is classed as binding. The conditions noted are these: 100 uM compound, qualitative rating + to ++++ or words.
Excerpt: as §1, §2, §3, §4

T1 sequence (P05067 672-713 limits assumed): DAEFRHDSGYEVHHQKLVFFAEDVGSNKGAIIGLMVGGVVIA

As for `CN(C)CCNc1cc(-c2ccccc2)nc2ccccc12` [Compound T048], at Aβ plaques (Table 1 quinolines), the “Brain Section Staining: Ab (amyloid)” value was “binds to Ab (amyloid) (100 uM)”.

`c1ccc2nc(-c3ccncc3)ccc2c1` [Compound T123, 2-(Pyridin-4-yl)quinoline]: the “Brain Section Staining: fluorescence” value in the assay with AD brain sections is given as “No fluorescence is detected at 100 uM”.

In the case of `CN(C)c1ccc(-c2ccc3ccccc3n2)cn1` [Compound T125, N,N-Dimethyl-5-(quinolin-2-yl)pyridin-2-amine], in the assay with tau aggregates (Table 1 quinolines), the “Brain Section Staining: tau” value is reported as “staining shows strong binding to tau”.

Consider `COc1ccc2nc(-c3ccc(N(C)C)cc3)ccc2c1` [Compound T139, 4-(6-Methoxyquinolin-2-yl)-N,N-dimethylaniline], for which the “Brain Section Staining: tau” value in the assay on tau aggregates (Table 1 quinolines) is “binds to amyloid and Tau”. Besides, at Aβ plaques (Table 1 quinolines), the “Brain Section Staining: Ab (amyloid)” value was “binds to amyloid and Tau”.

Take `CNc1ccc(-c2ccc3cc(OCCF)ccc3n2)cc1.Cl.Cl` [Compound T409]: at Aβ plaques (Table 1 quinolines), the “Brain Section Staining: Ab (amyloid)” value is listed as “binds to amyloid”.

`Cl.Cl.FCCNc1ccc(-c2ccc3ccccc3n2)cc1` [Compound T411, N-(2-Fluoroethyl)-4-(quinolin-2-yl)aniline dihydrochloride]: in the assay on tau aggregates (Table 1 quinolines), the “Brain Section Staining: tau” value was “binds to tau”. At Aβ plaques (Table 1 quinolines), the “Brain Section Staining: Ab (amyloid)” value is on record as “weakly binds to Ab”.

`[N-]=[N+]=NCCOCCOCCNc1ccc(-c2ccc3ccccc3n2)cc1` [Compound T412]: the “Brain Section Staining: tau” value with tau aggregates (Table 1 quinolines) is given as “binds to tau”. The “Brain Section Staining: Ab (amyloid)” value at Aβ plaques (Table 1 quinolines) was “not to amyloid”.

Regarding `CN(C)c1ccc(/C=C/c2ccc3cc(F)ccc3n2)cc1` [Compound T429], on Aβ plaques (Table 1 quinolines), the “Brain Section Staining: Ab (amyloid)” value is recorded as “binds to Ab”.

For the molecule `FCCOCCOCCNc1ccc(-c2ccc3ccccc3n2)cc1` [Compound T442], the “Brain Section Staining: tau” value in the assay with tau aggregates (Table 1 quinolines) is “binds to Tau and Ab”. In addition, at Aβ plaques (Table 1 quinolines), the “Brain Section Staining: Ab (amyloid)” value is “binds to Tau and Ab”.

On to `Nc1ccc(-c2ccc3ccccc3n2)cc1F` [Compound T445, 2-Fluoro-4-(quinolin-2-yl) aniline], for which the “Brain Section Staining: tau” value in the assay on tau aggregates (Table 1 quinolines) was “binds to Tau”.

In the case of `CNc1ccc(C#Cc2nc3cc(OC)ccc3s2)cc1F` [Compound T448], the “Brain Section Staining: Ab (amyloid)” value on Aβ plaques (Table 2 acetylenes) is reported as “binds to Ab”.

For the molecule `Cn1ccc2cc(-c3ccc4ccccc4n3)ccc21` [Compound T453, 2-(1-Methyl-1H-indol-5-yl)quinoline], on Aβ plaques (Table 1 quinolines), the “Brain Section Staining: Ab (amyloid)” value is “binds to Ab”.

Turning to `FCCCNc1ccc(C#Cc2ccc3ccccc3n2)cc1` [Compound T454, N-(3-Fluoropropyl)-4-(quinolin-2-ylethynyl)aniline], the “Brain Section Staining: Ab (amyloid)” value on Aβ plaques (Table 1 quinolines) and at Aβ plaques (Table 2 acetylenes) was “binds to Ab” throughout.

Take `Fc1ccc(-c2ccc3ccccc3n2)cn1` [Compound T455, 2-(6-Fluoropyridin-3-yl)quinoline]: the “Brain Section Staining: fluorescence” value with AD brain sections is on record as “No fluorescence”.

Consider `CNc1ccc(-c2ccc3ccccc3n2)cc1F` [Compound T458], for which the “Brain Section Staining: tau” value in the assay on tau aggregates (Table 1 quinolines) is “binds to amyloid and tau”. Moreover, on Aβ plaques (Table 1 quinolines), the “Brain Section Staining: Ab (amyloid)” value was “binds to amyloid and tau”.

Consider `FCCCNc1ccc(C#Cc2nc3ccccc3[nH]2)cc1` [Compound T465, 4-((1H-Benzo[d]imidazol-2-yl)ethynyl)-N-(3-fluoropropyl)aniline], for which the “Brain Section Staining: tau” value in the assay on tau aggregates (Table 2 acetylenes) was “binds to tau and Ab”. Further, the “Brain Section Staining: Ab (amyloid)” value on Aβ plaques (Table 2 acetylenes) was “binds to tau and Ab”.

With `CNc1ccc(-c2cc(F)c3ccccc3n2)cc1` [Compound T466, 4-(4-fluoroquinolin-2-yl)-N-methylaniline], the “Brain Section Staining: tau” value in the assay on tau aggregates (Table 1 quinolines) was “binds to tau and amyloid”. Further, the “Brain Section Staining: Ab (amyloid)” value at Aβ plaques (Table 1 quinolines) is “binds to tau and amyloid”.

Turning to `COc1ccc2nc(-c3ccc(N)c(F)c3)ccc2c1` [Compound T467, 2-Fluoro-4-(6-methoxyquinolin-2-yl)aniline], in the assay with tau aggregates (Table 1 quinolines), the “Brain Section Staining: tau” value was “binds to tau and amyloid”. Besides, at Aβ plaques (Table 1 quinolines), the “Brain Section Staining: Ab (amyloid)” value was “binds to tau and amyloid”.

On to `CN(C)c1ccc(/C=C/c2cnc3ccccc3n2)cc1` [Compound T475], for which the “Brain Section Staining: Ab (amyloid)” value on Aβ plaques (Table 1 quinolines) is “binds to Ab mostly”.

`CNc1ccc(-c2cnc3ccccc3c2)cc1` [Compound T477, N-Methyl-4-(quinolin-3-yl)aniline]: the “Brain Section Staining: Ab (amyloid)” value on Aβ plaques (Table 1 quinolines) was “binds to Ab mostly”.

In the case of `CNc1ccc(-c2ccc3cc(OC)ccc3n2)cc1F.Cl.Cl` [Compound T483, 2-Fluoro-4-(6-methoxyquinolin-2-yl)-N-methylaniline dihydrochloride], the “Brain Section Staining: tau” value with tau aggregates (Table 1 quinolines) is on record as “Mostly binds to Tau”.

For `CN(C)c1ccc(-c2cc(F)c3ccccc3n2)cc1` [Compound T484, 4-(4-Fluoroquinolin-2-yl)-N—N-dimethylaniline], the “Brain Section Staining: tau” value in the assay with tau aggregates (Table 1 quinolines) is reported as “binds to Tau”. In addition, at Aβ plaques (Table 1 quinolines), the “Brain Section Staining: Ab (amyloid)” value was “binds to Tau and Ab”.

On to `Cn1cnc2ccc(-c3cc(F)c4ccccc4n3)cc21` [Compound T485, 4-Fluoro-2-(1-methyl-1H-benzo[d]imidazol-6-yl)quinoline 2,2,2-trifluoroacetate], for which the “Brain Section Staining: Ab (amyloid)” value at Aβ plaques (Table 1 quinolines) was “weakly binds to Ab”.

As for `FCCn1c(C#Cc2ccc3ccccc3n2)nc2ccccc21.O=C(O)C(F)(F)F` [Compound T496], the “Brain Section Staining: Ab (amyloid)” value at Aβ plaques (Table 2 acetylenes) is recorded as “Weakly binds to Ab”.

For `COc1ccc2nc(-c3ccc(N4CCN(CCCF)CC4)cc3)ccc2c1` [Compound T499, 2-(4-(4-(3-Fluoropropyl)piperazin-1-yl)phenyl)-6-methoxyquinoline], in the assay with AD brain sections, the “binding of fluorescent compound to AD brain sections confirmed by immunostaining with tau or Aβ antibodies” value (shortened to “binding of fluorescent compound”) is “binding”.

In the case of `CNc1ccc(-c2cc3ccccc3cn2)cc1.Cl` [Compound T501, 4-(Isoquinolin-3-yl)-N-methylaniline], the “Brain Section Staining: fluorescence” value with AD brain sections was “No fluorescence”.

Turning to `Nc1ccc(-c2ccnc3nc4ccccc4n23)cc1` [Compound T520, 4-(Benzo[4,5]imidazo[1,2-a]pyrimidin-4-yl)aniline], the “binding of fluorescent compound” value in the assay on AD brain sections is given as “binding”.

With `CNc1ccc(-c2ccn3c(n2)nc2ccccc23)cc1.O=C(O)C(F)(F)F.O=C(O)C(F)(F)F` [Compound T522, 4-(Benzo[4,5]imidazo[1,2-a]pyrimidin-2-yl)-N-methylaniline bistrifluoracetate], the “binding of fluorescent compound” value in the assay with AD brain sections is “total binding”.

As for `FCCOCCOCCNc1ccc(-c2ccc3ccccc3n2)cn1` [Compound T525, N-(2-(2-(2-Fluoroethoxy)ethoxy)ethyl)-5-(quinolin-2-yl)pyridin-2-amine], the “binding of fluorescent compound” value with AD brain sections was “binding”.

Turning to `FCCOCCOCCn1c(C#Cc2cnc3[nH]ccc3c2)nc2ccccc21.O=C(O)C(F)(F)F` [Compound T527], the “binding of fluorescent compound” value with AD brain sections is “binding”.

Take `CN(C)c1ccc(-c2ccc3cc(O)ccc3n2)cc1` [Compound T531]: in the assay with tau aggregates (Table 1 quinolines), the “Brain Section Staining: tau” value was “Binds to Tau”.

Regarding `FCCOCCOCCOc1ccc2nc(-c3ccc(N4CCOCC4)nc3)ccc2c1` [Compound T539, 4-(5-(6-(2-(2-(2-Fluoroethoxy)ethoxy)ethoxy)quinolin-2-yl)pyridin-2-yl)morpholine], the “binding of fluorescent compound” value with AD brain sections is reported as “binding”.

`Cn1c(C#Cc2ccc(NCCCF)cc2)nc2ccccc21` [Compound T540, N-(3-Fluoropropyl)-4-((1-methyl-1H-benzo[d]imidazol-2-yl)ethynyl)aniline]: the “binding of fluorescent compound” value with AD brain sections was “binding”.

For `CNc1ccc(C#Cc2nc3ccccc3n2CCOCCOCCF)cc1.O=C(O)C(F)(F)F` [Compound T541], the “binding of fluorescent compound” value with AD brain sections was “binding”.

In the case of `FCCCNc1ccc(-c2ccn3c(n2)nc2ccccc23)cc1` [Compound T542, 4-(Benzo[4,5]imidazo[1,2-a]pyrimidin-2-yl)-N-(3-fluoropropyl)aniline], the “binding of fluorescent compound” value with AD brain sections is “binding”.

As for `FCCCNc1ccc(-c2ccnc3nc4ccccc4n23)cc1` [Compound T544, 4-(Benzo[4,5]imidazo[1,2-a]pyrimidin-4-yl)-N-(3-fluoropropyl)aniline], the “binding of fluorescent compound” value in the assay on AD brain sections is “binding”.

Regarding `FCCOCCOCCOc1ccc2nc(-c3ccc(N4CCOCC4)cc3)ccc2c1` [Compound T549, 4-(4-(6-(2-(2-(2-Fluoroethoxy)ethoxy)ethoxy)quinolin-2-yl)phenyl)morpholine], in the assay with tau aggregates (Table 1 quinolines), the “Brain Section Staining: tau” value is recorded as “Binds to Tau”.

Consider `CN1CCN(c2ccc(-c3ccc4cc(OCCOCCOCCF)ccc4n3)cc2)CC1` [Compound T550, 6-(2-(2-(2-Fluoroethoxy)ethoxy)ethoxy)-2-(4-(4-methylpiperazin-1-yl)phenyl)quinoline], for which the “Brain Section Staining: tau” value in the assay on tau aggregates (Table 1 quinolines) is listed as “Binds to Tau”.

Turning to `Fc1ccc(C#Cc2ccc3scnc3c2)cn1` [T114/ W313], the “Brain Section Staining: tau” value in the assay on tau aggregates (Table 2 acetylenes) is “stains amyloid and tau”. The “Brain Section Staining: Ab (amyloid)” value on Aβ plaques (Table 2 acetylenes) is “stains amyloid and tau”.

With `CNc1ccc(C#Cc2nc3ccc(O)cc3s2)cc1F` [T118/ W366, 2-((3-fluoro-4-(methylamino)phenyl)ethynyl)benzo[d]thiazol-6-ol], the “Brain Section Staining: Ab (amyloid)” value on Aβ plaques (Table 2 acetylenes) is reported as “binds to Ab”.
